# Where a name gives a salt, the structure may show the parent alone. Read-outs that look alike come from different tables or passages of the source.
# Tests used:
# human eNOS = target: T1, human eNOS (Homo sapiens, UniProt P29474); test: Inhibition of purified human eNOS ([14C]-L-arginine to citrulline conversion); type: biochemical; conditions: purified human enzyme, 30° C., 0.5 μM [14C]-L-arginine; read-out: Purified Human Enzyme Kd tNOS
# T1 construct: made in house
# Experimental: (§1) The inhibition of purified human NO synthases was determined following preparation of human nNOS (Furfine et al. (1993) Biochem. 32, 8512-8517), iNOS (Sherman et al. (1993) Biochem. 32, 11600-11605) and eNOS (Garvey et al. (1994) Arch. Bioch. Biophys., in press) as described. Their activity was monitored by the conversion of [^14C]-L-arginine to citrulline as described by Schmidt et al. ((1991) Proc. Natl. Acad. Sci. USA 88, 365-369) in reaction mixtures (100 μl) containing 50 mM HEPES pH 7.0, 8 μM tetrahydrobiopterin, 1 mM NADPH and 0.5 μM [^14C]-L-arginine (30,000 cpm) at 30° C.
# human nNOS = target: T2, human nNOS (Homo sapiens, UniProt P29475); test: Inhibition of purified human nNOS ([14C]-L-arginine to citrulline conversion); type: biochemical; conditions: 30° C., 0.5 μM [14C]-L-arginine, read-out: Purified Human Enzyme Kd nNOS
# T2 construct: made in house
# Experimental: as §1
# iNOS in rat aortic rings = target: T3, iNOS in rat aortic rings (Rattus norvegicus, UniProt Q06518); test: Inhibition of iNOS in situ in rat aortic rings (LPS-induced loss of tone, endothelium-denuded rings); type: cell-based; conditions: for IC50: endothelium-denuded rings, LPS 6 h, mean ±SEM (n), read-out: IC50 iNOS in rate sortic rings; for Selectivity for iNOS: rat aortic rings, iNOS vs eNOS
# T3 construct: During this time a progressive loss of tone occurred because of iNOS induction; from tissue; host or cells: rat thoracic aorta rings, endothelium-denuded, exposed to LPS
# Experimental: (§2) The inhibition of eNOS and iNOS in situ in rat aortic rings was assessed by measuring the increases in ring tension caused by NO synthase inhibition. For studies of basal tone (reflecting eNOS), rings of thoracic aorta with intact endothelium were prepared as described previously (Rees et al. (1989) Br. J. Pharmacol. 96, 418-424) and cumulative concentration curves obtained for the inhibitors in the presence of a threshold concentration of phenylephrine (ED10≈10 nM). For studies of induced smooth muscle tone (reflecting iNOS), endothelium-denuded rings were exposed to LPS (0.1 μg/ml from S. typhosa) in the presence of phenylephrine at approximately ED90 for 6 h as described previously (Rees et al. (1990) Biochem. Biophys. Res. Commun. 173, 541-547). During this time a progressive loss of tone occurred because of iNOS induction. Cumulative concentration curves were then obtained for the inhibitors.
# eNOS in rat aortic rings = target: T4, eNOS in rat aortic rings (Rattus norvegicus, UniProt Q62600); test: Inhibition of eNOS in situ in rat aortic rings (basal tone, intact endothelium); type: cell-based; conditions: rings with intact endothelium; for inhibition at 300 µM: read-out: inhibition at 300 μM, cNOS in rat sortic rings; for IC50: basal tone, mean ±SEM (n), read-out: IC50 cNOS in rat sortic rings
# T4 construct: from tissue; host or cells: rat thoracic aorta rings with intact endothelium
# Experimental: as §2
# human iNOS [1] = target: T5, human iNOS (Homo sapiens, UniProt P35228); test: Inhibition of purified human iNOS ([14C]-L-arginine to citrulline conversion); type: biochemical; parameters: made in house; conditions: for Selectivity for iNOS vs. cNOS: purified human enzymes, ratio of Kd; for Selectivity for iNOS vs. cNOS [relative to LNMMA]: value in square brackets
# Experimental: as §1
# human iNOS [2] = target: T5, human iNOS; test: Inhibition of recombinant human iNOS (baculovirus/insect cell cytosol, spectrophotometric microtitre plate assay); type: biochemical; parameters: made in house; host or cells: baculovirus/insect cell system; insect cytosol assayed unpurified; conditions: 37° C., L-arginine 30 μM, steady-state 15-30 min; mean ±SEM (n)
# Experimental: Inhibition of recombinant human iNOS was determined following expression in a baculovirus/insect cell system (Charles et al (1994) In: The Biology of Nitric Oxide 4, Moncada S., Feelisch M., Busse R. and Higgs E. A., eds., Portland Press, London, pp 316-320), assaying the insect cytosol for NO synthase in a microtitre plate assay based on the spectrophotometric assay described previously (Knowles et al (1990) Biochem. Biophys. Res. Commun. 172, 1042-1048). The assay was conducted at 37° C. in reaction mixtures containing HEPES (100 mM), DTT (0.1 mM), tetrahydrobiopterin (5 μM), NADPH (100 μM), haemoglobin (5 μM), L-arginine (30 μM) and inhibitor (0-300 μM), measuring the absorbance change at 405-420 nm, and determining the steady-state inhibition between 15 and 30 minutes incubation.
# eNOS = target: T6, eNOS (Mus musculus, UniProt P70313); test: Blood pressure in normal conscious mice (eNOS in vivo); conditions: conscious female CD-1 mice, dose range 1-1000 mg/kg, intravenous
# T6 construct: from tissue; host or cells: whole animal: female CD-1 mice, untreated
# Experimental: (§3) The inhibition of eNOS and iNOS in vivo was assessed by the effects of inhibitors on blood pressure in either normal (eNOS) or endotoxin shocked (iNOS) conscious mice. Female CD-1 mice (25-35 g) were anaesthetised briefly with isofluorane (2%). Cannula lines were implanted in the femoral vein, tunnelled subcutaneously to exit at the top of the back and connected to a swivel tether system for continuous monitoring of blood pressure and for inhibitor administration respectively. Following recovery from surgery, animals with mean blood pressures in the normal range (90-110 mm Hg) were used to obtain cumulative concentration curves for inhibitors on blood pressure either without further treatment (“normal mice”) or 7 h after administration of lipopolysaccharide (12.5 mg/kg of LPS from E. coli 026:B6 intravenously over 30 s) to induce shock (“shocked mice”).
# iNOS [3] = target: T7, iNOS (Mus musculus, UniProt P29477); test: Blood pressure in endotoxin shocked conscious mice (iNOS in vivo); conditions: conscious female CD-1 mice, 7 h after LPS 12.5 mg/kg i.v.
# T7 construct: from tissue; host or cells: whole animal: female CD-1 mice, 7 h after LPS
# Experimental: as §3
# iNOS [4] = test: Endotoxin induced vascular (plasma) leakage in rats; type: in vivo
# Experimental: The effects of Example 7 on endotoxin induced vascular leakage were assessed in rats as described by Laszlo et al ((1994) Brit. J. Pharmacol. 111 1309-1315). […] However, Example 7 did abolish the iNOS-dependent delayed plasma leakage, with an ED50 of 1 mg/kg.
# [5] = purified human iNOS, 30° C., 0.5 μM [14C]-L-arginine, read-out: Purified Human Enzyme Kd iNOS
Kd (human eNOS) [µM],Kd (human nNOS) [µM],IC50 (iNOS in rat aortic rings) [µM],Selectivity for iNOS (iNOS in rat aortic rings),inhibition at 300 µM (eNOS in rat aortic rings) [%],IC50 (eNOS in rat aortic rings) [µM],Selectivity for iNOS vs. cNOS (human iNOS [1]),Kd (human iNOS [1]; [5]) [µM],Selectivity for iNOS vs. cNOS [relative to LNMMA] (human iNOS [1]),IC50 (human iNOS [2]) [µM],SMILES,effect on blood pressure in normal mice (eNOS),effect on blood pressure in shocked mice (iNOS [3]),"aggravation of the endotoxin-induced plasma leakage (iNOS [4]; doses up to 5 mg/kg, administered concurrently with endotoxin)","ED50, abolition of iNOS-dependent delayed plasma leakage (iNOS [4]; endotoxin induced) [mg/kg]","Kd (human iNOS [1]; footnote: inhibition strongly time dependant on iNOS, read-out: Kd on iNOS, time dependent inhibition) [µM]"
23,26,1.7 ± 0.7,>>200-fold,8,> 300,12,1.9,33,5.5 ± 0.55,"Br.Br.N=C(CF)NCCS(=O)(=O)CC(N)C(=O)O (stereo not drawn) [Example 1, 2-Amino-6-(1-imino-2-fluoroethylamino)-4,4-dioxo-4-thiahexanoic acid dihydrobromide]",–,–,–,–,–
–,–,33 ± 13,>10-fold,26,> 300,–,–,–,30 ± 3,"COCC(=N)NCCS(=O)(=O)CC(N)C(=O)O (stereo not drawn) [Example 2, 2-Amino-6-(1-imino-2-methoxyethylamino)-4,4-dioxo-4-thiohexanoic acid dihydrobromide dihydrate]",–,–,–,–,–
–,–,–,–,–,–,–,–,–,95 ± 3,"CSCC(=N)NCCS(=O)(=O)CC(N)C(=O)O (stereo not drawn) [Example 5, 2-Amino-6-(2-methylthio-1-imioethylamino)-4,4-dioxo-4-thiohexanoic acid]",–,–,–,–,–
–,–,–,–,–,–,–,–,–,> 300,"N=C(CO)NCCS(=O)(=O)CC(N)C(=O)O (stereo not drawn) [Example 6, 2-Amino-6-(2-hydroxy-1-iminoethylamino)-4,4-dioxo-4-thiahexanoic acid 1.67 hydrochloride 0.33 hydrobromide]",–,–,–,–,–

# The remaining lines, values behind:
SMILES,Kd (human eNOS) [µM],Kd (human nNOS) [µM],IC50 (iNOS in rat aortic rings) [µM],Selectivity for iNOS (iNOS in rat aortic rings),inhibition at 300 µM (eNOS in rat aortic rings) [%],IC50 (eNOS in rat aortic rings) [µM],Selectivity for iNOS vs. cNOS (human iNOS [1]),Kd (human iNOS [1]; [5]) [µM],Selectivity for iNOS vs. cNOS [relative to LNMMA] (human iNOS [1]),IC50 (human iNOS [2]) [µM],effect on blood pressure in normal mice (eNOS),effect on blood pressure in shocked mice (iNOS [3]),"aggravation of the endotoxin-induced plasma leakage (iNOS [4]; doses up to 5 mg/kg, administered concurrently with endotoxin)","ED50, abolition of iNOS-dependent delayed plasma leakage (iNOS [4]; endotoxin induced) [mg/kg]","Kd (human iNOS [1]; footnote: inhibition strongly time dependant on iNOS, read-out: Kd on iNOS, time dependent inhibition) [µM]"
"CC(=O)OCC(=N)NCCS(=O)(=O)CC(N)C(=O)O (stereo not drawn) [Example 3, dihydrobromide]",–,–,–,–,–,–,–,–,–,> 300,–,–,–,–,–
"N=C(COCc1ccccc1)NCCS(=O)(=O)CC(N)C(=O)O (stereo not drawn) [Example 4, hydrobromide]",–,–,–,–,–,–,–,–,–,> 300,–,–,–,–,–
"CC(=N)NCCS(=O)(=O)CC(N)C(=O)O (stereo not drawn) [Example 7, 2-Amino-6-(1-iminoethylamino)-4,4-dioxo-4-thiahexanoic acid]",29,18,1.5 ± 0.3,67-fold,–,101 ± 21,27,2.9,73,14 ± 0.6,no effect on blood pressure,restore fully the blood pressure to the normal range,did not cause aggravation,1,0.1
"CC(=N)NCC[S+]([O-])CC(N)C(=O)O (stereo not drawn) [Example 8, 2-Amino-6-(1-iminoethylamino)-4-oxo-4-thiahexanoic acid]",100,68,2.7 ± 0.2,>100 fold,42,> 300,11,9.1,30,–,–,–,–,–,–
